Data reported in patent publication US20090186811A1, “Y2 Selective Receptor Agonists for Therapeutic Interventions” (priority 2004, published 2009).
Positions of bridges follow the written chain, without caps; N, C: chain ends. Non-standard residues stand in square brackets, D forms with d. Residues, ends and D or L forms follow the SMILES beside them. Aoc = NCCCCCCCC(=O)O

Experiments:
human Y5 receptor [1] = target: T1, human Y5 receptor (Homo sapiens, UniProt Q15761); assay: Human Y5 receptor potency assay (inositol phosphate turnover); format: cell-based
T1 construct: expressed in transfected cells; host or cells: COS-7
Method: (§1) Potency of the test compounds on the human Y2 receptor is determined by performing dose-response experiments in COS-7 cells transiently transfected with the human Y2 receptor as well as a promiscuous G protein, Gqi5 which ensures that the Y2 receptor couples through a Gq pathway leading to an increase in inositol phosphate turnover.
(§2) Cells are washed twice in buffer, 20 mM HEPES, pH 7.4, supplemented with 140 mM NaCl, 5 mM KCl, 1 mM MgSO4, 1 mM CaCl2, 10 mM glucose, 0.05% (w/v) bovine serum; and are incubated in 0.5 ml buffer supplemented with 10 mM LiCl at 37 C for 30 min. After stimulation with various concentrations of peptide for 45 min at 37 C, cells are extracted with 10% ice-cold perchloric acid followed by incubation on ice for 30 min. The resulting supernatants are neutralized with KOH in HEPES buffer, and the generated [3H]-inositol phosphate are purified on Bio-Rad AG 1-X8 anion-exchange resin and counted in a beta counter. Determinations are made in duplicates. EC50 values were calculated using a standard pharmacological data handling software, Prism 3.0 (graphPad Sofware, San Diego, USA).
Protocol as for the Y2 potency assay, except that human Y5-transformed COS-7 cells are used

human Y1 receptor [2] = target: T2, human Y1 receptor (Homo sapiens, UniProt P25929); assay: Human Y1 receptor affinity assay (competition binding)
T2 construct: expressed in transfected cells; host or cells: COS-7
T2 sequence (P25929 1-384): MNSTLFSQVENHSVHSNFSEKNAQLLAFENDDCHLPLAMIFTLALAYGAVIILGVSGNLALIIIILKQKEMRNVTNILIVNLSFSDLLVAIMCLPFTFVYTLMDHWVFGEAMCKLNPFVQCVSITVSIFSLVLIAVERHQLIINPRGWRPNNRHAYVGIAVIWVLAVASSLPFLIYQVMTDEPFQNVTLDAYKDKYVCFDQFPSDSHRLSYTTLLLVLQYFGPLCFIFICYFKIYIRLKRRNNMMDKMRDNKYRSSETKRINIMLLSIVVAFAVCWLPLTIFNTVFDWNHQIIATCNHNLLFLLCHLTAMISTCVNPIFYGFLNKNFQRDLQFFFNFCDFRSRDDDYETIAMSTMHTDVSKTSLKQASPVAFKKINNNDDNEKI
Method: (§3) Transfected COS-7 cells are transferred to culture plates one day after transfection at a density of 40×10^3 cells per well aiming at 5-8% binding of the radioactive ligand. […] Determinations are made in duplicate. […] EC50 values were calculated using a standard pharmacological data handling software, Prism 3.0 (graphPad Sofware, San Diego, USA).

human Y2 receptor [3] = target: T3, human Y2 receptor (Homo sapiens, UniProt P49146); assay: Human Y2 receptor affinity assay (competition binding)
T3 construct: expressed in transfected cells; host or cells: COS-7
T3 sequence (P49146 1-381): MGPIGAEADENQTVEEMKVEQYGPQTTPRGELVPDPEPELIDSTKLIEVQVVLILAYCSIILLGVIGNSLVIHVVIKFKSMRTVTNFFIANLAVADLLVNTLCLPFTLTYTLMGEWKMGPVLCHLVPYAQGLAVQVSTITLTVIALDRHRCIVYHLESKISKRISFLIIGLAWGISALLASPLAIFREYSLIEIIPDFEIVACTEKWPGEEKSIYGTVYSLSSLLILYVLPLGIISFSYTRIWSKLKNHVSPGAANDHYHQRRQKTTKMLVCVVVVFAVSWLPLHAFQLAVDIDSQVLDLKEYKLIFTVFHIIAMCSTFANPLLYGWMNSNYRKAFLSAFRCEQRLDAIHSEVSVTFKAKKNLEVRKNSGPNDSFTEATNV
Method: as §3

human Y1 receptor [4] = target: T2, human Y1 receptor; assay: Human Y1 receptor potency assay (inositol phosphate turnover); format: cell-based
Method: as §1, §2
Protocol as for the Y2 potency assay, except that human Y1-transformed COS-7 cells are used.

human Y2 receptor [5] = target: T3, human Y2 receptor; assay: Human Y2 receptor potency assay (inositol phosphate turnover); format: cell-based; conditions: Y2 EC50, COS-7 cells with human Y2 and Gqi5, inositol phosphate turnover; Table 2
Method: as §1, §2

human Y4 receptor [6] = target: T4, human Y4 receptor (Homo sapiens, UniProt P50391); assay: Human Y4 receptor potency assay (inositol phosphate turnover); format: cell-based
T4 construct: expressed in transfected cells; host or cells: COS-7
Method: as §1, §2
Protocol as for the Y2 potency assay, except that human Y4-transformed COS-7 cells are used.

human Y4 receptor [7] = target: T4, human Y4 receptor; assay: Human Y4 receptor affinity assay (competition binding)
Method: as §3

human Y5 receptor [8] = target: T1, human Y5 receptor; assay: Human Y5 receptor affinity assay (competition binding)
Method: as §3

rats = conditions: rat; cited from earlier work

T4 sequence (P50391 whole entry): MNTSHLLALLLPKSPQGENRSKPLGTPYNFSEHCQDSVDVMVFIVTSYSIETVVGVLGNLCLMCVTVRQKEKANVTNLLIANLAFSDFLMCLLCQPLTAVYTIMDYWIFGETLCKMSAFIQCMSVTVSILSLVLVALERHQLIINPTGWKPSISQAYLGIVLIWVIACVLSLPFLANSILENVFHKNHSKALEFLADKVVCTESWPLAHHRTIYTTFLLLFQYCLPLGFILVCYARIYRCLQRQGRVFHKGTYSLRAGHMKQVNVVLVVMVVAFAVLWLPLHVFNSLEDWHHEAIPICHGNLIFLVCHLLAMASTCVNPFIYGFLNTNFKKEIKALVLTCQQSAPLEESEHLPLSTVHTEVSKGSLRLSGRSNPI
T1 sequence (Q15761 whole entry): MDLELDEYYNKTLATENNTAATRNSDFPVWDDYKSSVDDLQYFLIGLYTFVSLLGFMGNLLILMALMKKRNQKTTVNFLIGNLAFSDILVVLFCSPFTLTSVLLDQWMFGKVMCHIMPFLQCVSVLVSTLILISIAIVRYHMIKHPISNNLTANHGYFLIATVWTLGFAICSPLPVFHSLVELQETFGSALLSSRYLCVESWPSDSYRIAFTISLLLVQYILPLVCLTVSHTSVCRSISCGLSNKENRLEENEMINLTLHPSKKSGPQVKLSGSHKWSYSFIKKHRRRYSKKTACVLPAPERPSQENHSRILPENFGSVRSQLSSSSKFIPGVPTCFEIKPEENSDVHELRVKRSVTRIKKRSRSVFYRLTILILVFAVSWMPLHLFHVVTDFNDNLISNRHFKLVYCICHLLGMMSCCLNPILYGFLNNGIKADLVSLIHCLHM

Molecule `CC(C)C[C@H](NC(=O)[C@H](Cc1ccc(O)cc1)NC(=O)[C@H](Cc1c[nH]cn1)NC(=O)[C@H](CCCNC(=N)N)NC(=O)[C@H](CCCCN)NC(=O)[C@H](CCCCN)NC(=O)[C@H](CCCCN)NC(=O)[C@H](CCCCN)NC(=O)[C@H](CCCCN)NC(=O)[C@@H](N)CCCCN)C(=O)N[C@@H](CC(N)=O)C(=O)N[C@@H](CC(C)C)C(=O)N[C@H](C(=O)N[C@H](C(=O)N[C@@H](CCCNC(=N)N)C(=O)N[C@@H](CCC(N)=O)C(=O)N[C@@H](CCCNC(=N)N)C(=O)N[C@@H](Cc1ccc(O)cc1)C(N)=O)[C@@H](C)O)C(C)C` [SEQ ID NO: 11, Lys-Lys-Lys-Lys-Lys-Lys-PYY25-36] has an EC50 (human Y5 receptor [1]) of over 1000 nM.
Molecule `CC[C@H](C)[C@H](NC(=O)[C@H](Cc1ccc(O)cc1)NC(=O)[C@H](CCCNC(=N)N)NC(=O)[C@H](CCCNC(=N)N)NC(=O)[C@H](CC(C)C)NC(=O)[C@H](CC(=O)O)NC(=O)[C@H](C)NC(=O)[C@H](C)NC(=O)[C@H](Cc1ccc(O)cc1)NC(=O)[C@H](CCC(N)=O)NC(=O)[C@H](C)NC(=O)[C@H](CCSC)NC(=O)[C@H](CCC(N)=O)NC(=O)[C@H](CCC(=O)O)NC(=O)[C@@H]1CCCN1C(=O)[C@@H](NC(=O)[C@H](C)NC(=O)[C@H](CC(N)=O)NC(=O)[C@H](CC(=O)O)NC(=O)CNC(=O)[C@@H]1CCCN1C(=O)[C@H](Cc1ccc(O)cc1)NC(=O)[C@@H](NC(=O)[C@@H]1CCCN1C(=O)[C@H](CCCCN)NC(=O)[C@H](CC(C)C)NC(=O)[C@@H]1CCCN1C(=O)[C@H](C)N)C(C)C)[C@@H](C)O)C(=O)N[C@@H](CC(N)=O)C(=O)N[C@@H](CCSC)C(=O)N[C@@H](CC(C)C)C(=O)N[C@H](C(=O)N[C@@H](CCCNC(=N)N)C(=O)N[C@@H](CCC(N)=O)C(=O)N[C@@H](CCCNC(=N)N)C(=O)N[C@@H](Cc1ccc(O)cc1)C(N)=O)[C@@H](C)O` [SEQ ID NO: 12, [Lys4,Gln34]PP] has an IC50 (human Y1 receptor [2]) of over 1000 nM.
With `CC[C@H](C)[C@@H]1NC(=O)[C@@H](NC(=O)[C@@H](N)Cc2ccc(O)cc2)CSSC[C@H](C(=O)N[C@@H](CC(C)C)C(=O)N[C@@H](CC(N)=O)C(=O)N[C@@H](CC(C)C)C(=O)N[C@H](C(=O)N[C@H](C(=O)N[C@@H](CCCNC(=N)N)C(=O)N[C@@H](CCC(N)=O)C(=O)N[C@@H](CCCNC(=N)N)C(=O)N[C@@H](Cc2ccc(O)cc2)C(N)=O)[C@@H](C)O)C(C)C)NC(=O)[C@H](Cc2c[nH]cn2)NC(=O)[C@H](CCCNC(=N)N)NC(=O)CCCCCCCNC(=O)[C@H](CCCCN)NC1=O` [SEQ ID NO: 16, [Cys2,Aoc5-24,D-Cys27]PYY] (H-YCIK[Aoc]RH[dC]LNLVTRQRY-NH2; disulfide 2-8; N-terminus assumed) the EC50 (human Y5 receptor [1]) was over 1000 nM, the “stimulation of the Y5 receptor” value (human Y5 receptor [1]; at a concentration of 1 μM) was “stimulates neither” and the IC50 (human Y2 receptor [3]) was 0.87 nM. For the same molecule, the EC50 (human Y1 receptor [4]) was over 1000 nM, the “stimulation of the Y1 receptor” value (human Y1 receptor [4]; at 1 μM) was “does not even at 1 μM stimulate” and the EC50 (human Y2 receptor [5]) was 3.7 nM. The EC50 (human Y4 receptor [6]) was over 1000 nM, the “stimulation of the Y4 receptor” value (human Y4 receptor [6]; at a concentration of 1 μM) was “stimulates neither” and the IC50 (human Y1 receptor [2]) was over 1000 nM. It also gave an IC50 (human Y4 receptor [7]) of 267 nM and an IC50 (human Y5 receptor [8]) of over 1000 nM.
In the case of [Ahx5-24, gamma-Glu2-eps-Lys30]NPY, the “blood pressure increase in vivo” value (rats) is given as “not to induce blood pressure increases”.
